What all share (assay type): cell-based
The subject of experiment [1] is human promyelocytic leukemia cell strain HL-60. Nature of the experiment: HL-60 differentiation with coexisting HX630 (enhancer of differentiation inducers). The following applies: for percentage of differentiated cells, coexisting compound HX630: coexisting HX630 1 × 10^−7M, control <10; for differentiation inducing activity with HX630 (in words): coexisting HX630 (Table 3).

Experiment [2] shares this test system. As to the kind of experiment: HL-60 differentiation with coexisting differentiation inducer Am80 (anti-differentiation activity). The following applies: for percentage of differentiated cells, coexisting compound Am80: coexisting Am80 3.3 × 10^−10M, control 55.
Experiment [3] shares this test system. Nature of the experiment: HL-60 differentiation induction, test compound alone. Conditions: for percentage of differentiated cells, no coexisting compound: HL-60, 4 days, control <10; for differentiation inducing activity at low concentration (in words): 0.01 μM test compound; for differentiation inducing activity at low concentration (in words) / differentiation inducing activity (in words): HL-60; for differentiation inducing activity (in words): test compound alone. As to the method: Inhibitory activity against proliferation of human promyelocytic leukemia cell strain HL-60 was evaluated an index of anti-leukemia activity. Subcultured HL-60 cells were seeded with the initial cell number of 8×10^4 cells/ml in the RPMI 1640 medium containing bovine fetal serum and an antibiotics. Each test compound was added at various concentrations and the mixture was cultured at 37° C. Four days later, cell number was counted. Anti-leukemia activity of each test compound was shown in the tables as percentage values of differentiated cells, which cells were not differentiated in the absence of the test drug, […] observation and NBT reducing ability of the cells as indexes.

Experiment [4] concerns the target T1, rat estrogen receptor (pCI-rER α) (Rattus norvegicus, UniProt P06211).
T1 construct: expressed in transfected cells; host or cells: COS-1 cells
T1 sequence (P06211 1-600): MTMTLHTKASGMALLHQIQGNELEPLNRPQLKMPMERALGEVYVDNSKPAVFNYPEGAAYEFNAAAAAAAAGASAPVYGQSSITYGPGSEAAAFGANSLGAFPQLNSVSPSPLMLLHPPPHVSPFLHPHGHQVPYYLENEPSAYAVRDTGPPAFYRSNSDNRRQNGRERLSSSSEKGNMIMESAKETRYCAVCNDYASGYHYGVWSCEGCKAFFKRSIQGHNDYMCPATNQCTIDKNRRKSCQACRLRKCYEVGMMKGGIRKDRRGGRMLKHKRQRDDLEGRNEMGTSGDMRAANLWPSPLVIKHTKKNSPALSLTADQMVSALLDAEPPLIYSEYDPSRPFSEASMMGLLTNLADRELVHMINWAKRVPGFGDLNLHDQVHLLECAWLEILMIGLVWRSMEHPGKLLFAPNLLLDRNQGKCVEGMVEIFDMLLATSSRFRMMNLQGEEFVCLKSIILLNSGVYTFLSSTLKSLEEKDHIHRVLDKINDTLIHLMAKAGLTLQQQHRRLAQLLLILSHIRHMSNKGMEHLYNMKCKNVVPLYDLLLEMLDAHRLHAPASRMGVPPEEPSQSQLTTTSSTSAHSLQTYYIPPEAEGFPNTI
As to the kind of experiment: Antiestrogenic activity, luciferase reporter gene assay with coexisting β-estradiol. The following applies: for IC50: coexisting β-estradiol 1 × 10^−9M. Here is the method:
As estrogenic activity, estrogen receptor-dependent transcriptional activation abilities of the test compounds were determined by the r porter gene assay using luciferase gene. COS-1 cells were cultured using a DMEM medium containing an antibiotics and 5% bovine fetal serum in the wells of 24 well plates (cell density: 5 to 6×10^4/well) at 37° C. for one night under 5% carbon dioxide. On the next day, the medium was changed to DMEM medium not containing Phenol Red. Using gene introducing reagent Tfx-20 (Promega), reporter plasmid EREx3-pGL-TK, in which rat estrogen receptor expression plasmid pCI-rER α and an estrogen responsive sequence were placed upstream of the luciferase gene, and β-galactosidase expression plasmid pCMV β used as an internal standard were introduced into cells. The cells were cultured for 2 h, and the medium was changed to DMEM not containing Phenol Red but containing active charcoal-treated serum.
The culture was added with each test compound dissolved in ethanol at various concentrations (final ethanol concentration at 0.5%) and then cultivation was continued at 37° C. for one night under 5% carbon dioxide. On the next day, the cells were lysed and enzymatic activity of luciferase expressed was measured by using a chemiluminometer. The values were standardized based on galactocidase enzymatic activity, and then compared with the values obtained by experiments using no test compound and used as values of activity at various concentrations. […] The estrogenic activities in the table are shown as concentrations for 50% activity (EC50 values) which give 50% activities relative to luciferase activity regarded as 100 that is expressed by treatment with the control compound β-estradiol at 10 nM. Each compound tested in this experiment has a high estrogenic activity.
As antiestrogenic activities, estrogen receptor-dependent transcriptional activation abilities of the test compounds were measured by the reporter gene assay using luciferase gene in the same manner as the estrogen activity measurement. In Table 7, antiestrogenic activities of test compounds are indicated as IC50 values as 50% inhibitory concentrations relative to the luciferase activity regarded as 100 which is expressed by β-estradiol at 1 nM coexisting in the experimental system. Each compound tested in this experiment has antiestrogenic activity.
On the technique in general: Reporter assays use an easily measured gene product as a stand-in for the process of interest.

Setting [5] is: test compound 1 μM, morphology and NBT reducing ability.
Where [6] appears, read: coexisting Am80 1×10^−9 M (Table 4).

For the compound “4-[2-(1,2-dicarba-closo-dododecaboran-1-yl)-(E)-ethenylcarboxamide]benzoic acid [BR110]”, the “percentage of differentiated cells, coexisting compound HX630” value in experiment [1] (HL-60) stood at 48%. Besides, in experiment [1], the “differentiation inducing activity with HX630 (in words)” value was “differentiation inducing activities”. Also, the “percentage of differentiated cells, coexisting compound Am80” value in experiment [2] (HL-60) was 60%. Also, the “percentage of differentiated cells, no coexisting compound” value in experiment [3] (setting [5]) amounted to 12%.

For the compound “4-[3-(2-methyl-1,2-dicarba-closo-dodecaboran-1-yl)phenylcarbamoyl]benzoic acid [BR251]”, in experiment [1] (HL-60), the “percentage of differentiated cells, coexisting compound HX630” value amounted to 77%. Moreover, the “differentiation inducing activity with HX630 (in words)” value in experiment [1] was “differentiation inducing activities”. In experiment [2] (HL-60), the “percentage of differentiated cells, coexisting compound Am80” value is 55%. Besides, the “percentage of differentiated cells, no coexisting compound” value in experiment [3] (setting [5]) is recorded as 8%.

Turning to “4-[4-(2-methyl-1,2-dicarba-closo-dodecaboran-1-yl) phenylamino]benzoic acid [BR401]”, the “percentage of differentiated cells, coexisting compound HX630” value in experiment [1] (HL-60) was 75%. In addition, the “percentage of differentiated cells, coexisting compound Am80” value in experiment [2] (HL-60) came out at 60%. Also, in experiment [3], the “differentiation inducing activity at low concentration (in words)” value is given as “activities were maintained” and the “differentiation inducing activity (in words)” value is “strong differentiation inducing activities”. Also, the “percentage of differentiated cells, no coexisting compound” value in experiment [3] (test compound 0.01 μM) came to 26%. In addition, in experiment [3] (setting [5]), the “percentage of differentiated cells, no coexisting compound” value was 70%.

Take “4-{N-methyl-[2-methyl-4-(2-methyl-1,2-dicarba-closo-dodecaboran-1-yl)]phenylamino}benzoic acid [BR431]”: in experiment [1] (HL-60), the “percentage of differentiated cells, coexisting compound HX630” value worked out at 12%. Moreover, the “percentage of differentiated cells, coexisting compound Am80” value in experiment [2] (HL-60) worked out at 55%. In addition, the “percentage of differentiated cells, no coexisting compound” value in experiment [3] (setting [5]) turned out to be 10%.

In the case of “1-(4-hydroxyphenyl)-12-(4-dimethylaminoethoxyphenyl)-1,12-dicarba-closo-dodecaborane [BR162]”, the IC50 (usually the midpoint of a concentration-inhibition curve) in experiment [4] was 10 nM.

As for “4-[3-(2-propyl-1,2-dicarba-closo-dodecaboran-1-yl)phenylamino]benzoic acid [BR453]”, the “differentiation inducing activity at low concentration (in words)” value in experiment [3] was “activities were maintained”. Also, the “percentage of differentiated cells, no coexisting compound” value in experiment [3] (test compound 0.01 μM) and in experiment [3] (setting [5]) was 80% each time. Moreover, the “differentiation inducing activity (in words)” value in experiment [3] is reported as “strong differentiation inducing activities”.

As to `CC1(C)CCC(C)(C)c2cc(NC(=O)c3ccc(C(=O)O)cc3)ccc21` [Am80, 4-[(5,6,7,8-tetrahydro-5,5,8,8-tetramethyl-2-naphthalenyl)carbamoyl]benzoic acid, reference compound], the “percentage of differentiated cells, control (Am80 without test compound)” value in experiment [2] (Am80 3.3 × 10^−10M alone, HL-60) is “Am80 3.3 × 10^−10M (control: 55) %”.

In the case of `CC1(C)CCC(C)(C)c2cc3c(cc21)Sc1ccccc1N=C3c1ccc(C(=O)O)cc1` [HX630, 4-[2,3-(2,5-dimethyl-2,5-hexano)dibenzo-[b,f]-[1,4]thiazepin-11-yl]benzoic acid, reference compound], the “percentage of differentiated cells, control (HX630 without test compound)” value in experiment [1] (HX630 1 × 10^−7M alone, HL-60) is recorded as “HX630 1 × 10^−7M (control: <10) %”.

In experiment [4], “1-(3-hydroxyphenyl)-7-(3-dimethylaminoethoxyphenyl)-1,7-dicarba-closo-dodecaborane [BR272]” had an IC50 of 500 nM.

Consider “4-(2,3,4,5,6,7,8,9,10,11-decamethyl-1,12-dicarba-closo-dodecaborane-1-carbonylamino) benzoic acid [BR635]”, for which the “anti-differentiation activity (in words)” value in experiment [2] (setting [6]) is “remarkable anti-differentiation activities”.

The compound “1-(4-hydroxyphenyl)-7-(4-dimethylaminoethoxyphenyl)-1,7-dicarba-closo-dodecaborane [BR262]” had an IC50 in experiment [4] of 200 nM.

“4-[4-(2-propyl-1,2-dicarba-closo-dodecaboran-1-yl)phenylamino]benzoic acid [BR403]”: in experiment [3], the “differentiation inducing activity at low concentration (in words)” value was “activities were maintained” and the “differentiation inducing activity (in words)” value was “strong differentiation inducing activities”. In experiment [3] (test compound 0.01 μM), the “percentage of differentiated cells, no coexisting compound” value worked out at 84%. Also, the “percentage of differentiated cells, no coexisting compound” value in experiment [3] (setting [5]) is on record as 82%.

The compound “1-(3-hydroxyphenyl)-2-(3-dimethylaminoethoxyphenyl)-1,2-dicarba-closo-dodecaborane [BR372]” showed an IC50 in experiment [4] of 200 nM.

For the compound “4-{[4-(1,2-dicarba-closo-dodecaboran-1-yl)phenyl]carboxamide}benzoic acid [BR300]”, the “percentage of differentiated cells, coexisting compound HX630” value in experiment [1] (HL-60) came to 8%. Moreover, the “percentage of differentiated cells, coexisting compound Am80” value in experiment [2] (HL-60) is 37%. The “percentage of differentiated cells, no coexisting compound” value in experiment [3] (setting [5]) is listed as 6%.

For the compound “1-(2-hydroxyphenyl)-12-(3-dimethylaminoethoxyphenyl)-1,12-dicarba-closo-dodecaborane [BR172]”, the IC50 in experiment [4] is 600 nM.

On to “4-[4-(2-methyl-1,2-dicarba-closo-dodecaboran-1-yl)-phenylcarbamoyl]benzoic acid [BR201]”, for which the “percentage of differentiated cells, coexisting compound HX630” value in experiment [1] (HL-60) was determined as 12%. Further, the “percentage of differentiated cells, coexisting compound Am80” value in experiment [2] (HL-60) is reported as 5%. Besides, the “anti-differentiation activity (in words)” value in experiment [2] (coexisting Am80 (Table 2)) is reported as “strong anti-differentiation activity”. For the same compound, the “percentage of differentiated cells, no coexisting compound” value in experiment [3] (setting [5]) is 11%.

As for “4-(2,3,4,5,6,7,8,9,10,11-decamethyl-1,12-dicarba-closo-dodecaborane-1-carbonylamino) benzoic acid [BR630]”, the “anti-differentiation activity (in words)” value in experiment [2] (setting [6]) was “remarkable anti-differentiation activities”.

For the compound “4-[[3-(1,2-Dicarba-closo-dodecaboran-1-yl)phenyl]carboxamide]benzoic acid [BR350]”, the “percentage of differentiated cells, coexisting compound HX630” value in experiment [1] (HL-60) came to 48%. In addition, the “differentiation inducing activity with HX630 (in words)” value in experiment [1] is “differentiation inducing activities”. Also, in experiment [2] (HL-60), the “percentage of differentiated cells, coexisting compound Am80” value amounted to 60%. Moreover, the “percentage of differentiated cells, no coexisting compound” value in experiment [3] (setting [5]) is on record as 11%.

For the compound “1-(4-hydroxyphenyl)-2(4-dimethylamino-ethoxyphenyl)-1,2-dicarba-closo-dodecaborane [BR362]”, the “antiestrogenic activity (in words)” value in experiment [4] (coexisting β-estradiol 1 nM, tamoxifen as control) was “strong activity comparable to that of antiestrogenic drug tamoxifen”. In addition, the IC50 in experiment [4] worked out at 30 nM.
